ChEMBL document CHEMBL4414614, “Phthalideisoquinoline Hemiacetal Alkaloids from Corydalis decumbens That Inhibit Spontaneous Calcium Oscillations, Including Alkyl Derivatives of (+)-Egenine That Are Strikingly Levorotatory” (J Nat Prod, 2019)

Assays:
Type in all cases: functional
Mus musculus [1] = species on record: Mus musculus; experiment: (§1) Inhibition of neuronal excitability in C57BL/6 mouse Neocortical neurons assessed as effect on spontaneous calcium oscillation frequency measured for 10 mins by Fluo-4 staining based FLIPR assay
[2] = as §1; settings: C57BL/6, 10 min
Mus musculus [3] = species on record: Mus musculus; experiment: (§2) Inhibition of neuronal excitability in C57BL/6 mouse Neocortical neurons assessed as reduction in spontaneous calcium oscillation amplitude measured for 10 mins by Fluo-4 staining based FLIPR assay
[4] = as §2; settings: C57BL/6, 10 min

| Structure (SMILES) | IC50 [2] | IC50 [4] | inhibition (Mus musculus [1]) | inhibition (Mus musculus [3]) |
| --- | --- | --- | --- | --- |
| CO[C@@H]1O[C@@H]([C@@H]2c3cc4c(cc3CCN2C)OCO4)c2ccc3c(c21)OCO3 | 5.6 µM | 5.6 µM | Dose-dependent effect | Dose-dependent effect |
| CO[C@H]1O[C@@H]([C@@H]2c3cc4c(cc3CCN2C)OCO4)c2ccc3c(c21)OCO3 | 6.8 µM | 6.8 µM | Dose-dependent effect | Dose-dependent effect |

Further lines, with some results ahead:

| IC50 [2] | IC50 [4] | Structure (SMILES) | inhibition (Mus musculus [1]) | inhibition (Mus musculus [3]) |
| --- | --- | --- | --- | --- |
| 11.6 µM | 11.6 µM | COc1cc2c(cc1OC)[C@@H]([C@@H]1O[C@H](O)c3c1ccc1c3OCO1)N(C)CC2 | Dose-dependent effect | Dose-dependent effect |
| 8.3 µM | 8.3 µM | CCO[C@H]1O[C@@H]([C@@H]2c3cc4c(cc3CCN2C)OCO4)c2ccc3c(c21)OCO3 | Dose-dependent effect | Dose-dependent effect |
| 3.1 µM | 3.1 µM | CCO[C@@H]1O[C@@H]([C@@H]2c3cc4c(cc3CCN2C)OCO4)c2ccc3c(c21)OCO3 | Dose-dependent effect | Dose-dependent effect |
| 10.2 µM | 10.2 µM | CCO[C@@H]1O[C@@H]([C@@H]2c3cc(OC)c(OC)cc3CCN2C)c2ccc3c(c21)OCO3 | Dose-dependent effect | Dose-dependent effect |
